# Results published in article PMC10815578 (International Journal of Molecular Sciences, 2024).
# Values joined by “and” are separate entries in the source; they are usually repeats but may differ in a detail not shown here. Equal values may be shown once. Read-outs that look alike come from different tables or passages of the source.
# Columns and labels:
# OATP4C1 = target: T1, OATP4C1 (Homo sapiens, UniProt Q6ZQN7); assay: Inhibition of OATP4C1-mediated T3 uptake in OATP4C1/MDCKII cells; conditions: for inhibition at 10 min, 100 µM / inhibition at 10 min, 50 µM: human, pH 7.4, probe T3 (1 µM); for alteration of OATP4C1-mediated transport (in words): 100 µM (theaflavin 50 µM); for inhibition at 10 min, 50 µM: curcumin inhibition of OATP4C1-mediated transport, 50 µM curcumin
# T1 sequence (Q6ZQN7 1-724): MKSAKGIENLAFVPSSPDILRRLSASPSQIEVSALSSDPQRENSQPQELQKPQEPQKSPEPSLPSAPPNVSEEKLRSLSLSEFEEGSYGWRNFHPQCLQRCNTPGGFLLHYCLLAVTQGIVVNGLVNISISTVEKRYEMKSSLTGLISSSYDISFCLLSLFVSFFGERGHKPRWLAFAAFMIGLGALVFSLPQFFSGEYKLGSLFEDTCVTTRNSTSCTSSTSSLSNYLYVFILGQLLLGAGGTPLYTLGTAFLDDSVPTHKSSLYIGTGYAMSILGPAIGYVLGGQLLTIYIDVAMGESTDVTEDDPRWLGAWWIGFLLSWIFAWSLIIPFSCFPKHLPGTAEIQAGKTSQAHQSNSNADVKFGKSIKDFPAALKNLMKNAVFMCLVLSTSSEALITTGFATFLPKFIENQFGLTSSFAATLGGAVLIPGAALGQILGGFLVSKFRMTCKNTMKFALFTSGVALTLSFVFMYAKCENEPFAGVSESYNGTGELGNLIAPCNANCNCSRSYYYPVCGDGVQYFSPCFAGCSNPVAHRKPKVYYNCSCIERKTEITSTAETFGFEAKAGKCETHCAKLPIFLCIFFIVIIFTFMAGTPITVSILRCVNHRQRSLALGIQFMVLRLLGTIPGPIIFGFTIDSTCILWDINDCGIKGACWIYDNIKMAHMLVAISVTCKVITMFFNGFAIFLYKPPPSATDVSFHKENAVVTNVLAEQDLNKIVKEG
# OATP2B1 = conditions: Supplementary table, ref previous reports (superscript numbers), cited from earlier work; for IC50: read-out: OATP2B1 IC50
# OATP1B3 = conditions: cited from earlier work; for IC50: read-out: OATP1B3 IC50
# OAT3 = conditions: Supplementary table, cited from earlier work
# OATP1B1 = conditions: cited from earlier work; for OATP1B1 inhibition degree: ref 1 of the supplement
# OAT1 = conditions: Supplementary table, cited from earlier work
# [1] = OATP4C1 inhibition degree, 100 µM, Supplementary table
# [2] = Supplementary table, ref previous reports (superscript numbers)
# [3] = read-out: OATP1B1 IC50, Supplementary table, ref previous reports (superscript numbers)
# [4] = ref previous reports (superscript numbers)
compound,measurement,setting,value
"Oc1cc(O)c2cc(O)c(-c3ccc(O)c(O)c3)[o+]c2c1 [Cyanidin, Cyanidin chloride]",OATP4C1 inhibition or elevation (class),OATP4C1; Supplementary table,Yes
same,"inhibition at 10 min, 100 µM",OATP4C1; [1],24%
"O=C(O[C@@H]1Cc2c(O)cc(O)cc2O[C@@H]1c1cc(O)c(O)c(O)c1)c1cc(O)c(O)c(O)c1 [EGCG, epigallocatechin-3-gallate]",IC50,OATP2B1,101 ± 9 µM
same,OATP1B3 inhibition or elevation (class),"OATP1B3; Supplementary table, ref 25 of the supplement",Elevation
same,IC50,OATP1B3; [2],8.4 ± 0.6 µM
same,EC50,"OATP1B3; read-out: OATP1B3 elevation EC50, mean ± S.E., ref 25 of the supplement",10.5 ± 1.6 µM
same,Ki,"OAT3; ref 27 of the supplement, read-out: OAT3 Ki (asterisk)",162 ± 29 µM
same,IC50,OATP1B1; [3],14.1 µM and 7.8 µM
same,alteration of OATP4C1-mediated transport (in words),"OATP4C1; 1 µM T3, 10 min, without AA",did not inhibit
same,OATP4C1 inhibition or elevation (class),OATP4C1; Supplementary table,No
same,Ki,"OAT1; ref 27 of the supplement, read-out: OAT1 Ki (asterisk)",334 ± 58 µM
"COc1ccc([C@@H]2CC(=O)c3c(O)cc(O[C@@H]4O[C@H](CO[C@@H]5O[C@@H](C)[C@H](O)[C@@H](O)[C@H]5O)[C@@H](O)[C@H](O)[C@H]4O)cc3O2)cc1O [Hesperidin, hesperidin]",OATP4C1 inhibition or elevation (class),OATP4C1; Supplementary table,No
O=c1c(O[C@@H]2O[C@H](CO)[C@H](O)[C@H](O)[C@H]2O)c(-c2ccc(O)c(O)c2)oc2cc(O)cc(O)c12 [Hyperoside],IC50,OATP2B1,29.4 ± 1.5 µM
same,OATP4C1 inhibition or elevation (class),OATP4C1; Supplementary table,No
"O=c1c(O)c(-c2cc(O)c(O)c(O)c2)oc2cc(O)cc(O)c12 [Myricetin, myricetin]",OATP4C1 inhibition or elevation (class),OATP4C1; Supplementary table,No
"C[C@@H]1O[C@@H](O[C@H]2[C@H](Oc3cc(O)c4c(c3)O[C@H](c3ccc(O)cc3)CC4=O)O[C@H](CO)[C@@H](O)[C@@H]2O)[C@H](O)[C@H](O)[C@H]1O [Naringin, naringin]",IC50,OATP1B3; [2],197.5 ± 1.1 µM
same,OATP1B1 inhibition degree,OATP1B1; 250 µM,< 50%
same,OATP1B1 inhibition or elevation (class),OATP1B1; [2],Yes
same,OATP4C1 inhibition or elevation (class),OATP4C1; Supplementary table,No
"C[C@@H]1O[C@@H](OC[C@H]2O[C@@H](Oc3c(-c4ccc(O)c(O)c4)oc4cc(O)cc(O)c4c3=O)[C@H](O)[C@@H](O)[C@@H]2O)[C@H](O)[C@H](O)[C@H]1O [Rutin, rutin]",IC50,OATP2B1,60.7 ± 1.2 µM
same,IC50,OATP1B3; [2],111.5 ± 1.1 µM
same,OATP1B1 elevation degree,"OATP1B1; 50 µM, ref 2 of the supplement",81.1%
same,OATP1B1 inhibition degree,OATP1B1; 150 µM,< 50%
same,OATP1B1 inhibition or elevation (class),OATP1B1; [2],Elevation
same,OATP4C1 inhibition or elevation (class),OATP4C1; Supplementary table,No
"O=c1c(O)cc([C@H]2Oc3cc(O)cc(O)c3C[C@H]2O)cc2c([C@H]3Oc4cc(O)cc(O)c4C[C@H]3O)cc(O)c(O)c12 [Theaflavin, theaflavin]",Ki,OATP2B1; read-out: OATP2B1 Ki (asterisk),8.2 ± 1.7 µM
same,alteration of OATP4C1-mediated transport (in words),"OATP4C1; 1 µM T3, 10 min, without AA",did not inhibit
same,OATP4C1 inhibition or elevation (class),OATP4C1; Supplementary table,No
O=c1cc(-c2ccc(O)cc2)oc2cc(O)cc(O)c12 [apigenin],Ki,"OATP1B3; read-out: OATP1B3 Ki (asterisk), Supplementary table, ref previous reports (superscript numbers)",16.7 ± 1.6 µM
same,IC50,OAT3; [4],0.41 ± 0.157 µM
same,IC50,OATP1B1; [3],53.4 ± 2.1 µM
same,Ki,"OATP1B1; read-out: OATP1B1 Ki (asterisk), Supplementary table, ref previous reports (superscript numbers)",0.6 ± 0.2 µM
same,inhibition of OATP4C1-mediated transport,"OATP4C1; 100 µM compound, 1 µM T3, 10 min, 37 °C, without AA",66%
same,OATP4C1 inhibition or elevation (class),OATP4C1; Supplementary table,Yes
same,"inhibition at 10 min, 100 µM",OATP4C1; [1],54%
same,"inhibition at 10 min, 100 µM","OATP4C1; inhibition of OATP4C1-mediated transport, 100 µM compound, 1 µM T3, 10 min, 37 °C, without AA",≥ 50%
same,IC50,OAT1; [4],0.212 ± 0.01 µM
"O=C(O)/C=C/c1ccc(O)c(O)c1 [caffeic acid, Caffeic acid]",alteration of OATP4C1-mediated transport (in words),"OATP4C1; 1 µM T3, 10 min, without AA",did not inhibit
same,OATP4C1 inhibition or elevation (class),OATP4C1; Supplementary table,No
COc1cc(/C=C/C(=O)CC(=O)/C=C/c2ccc(O)c(OC)c2)ccc1O [curcumin],IC50,"OATP1B1; read-out: IC50 OATP1B1 transport, no antioxidant used",3.8 µM
same,IC50,OATP1B1; [3],3.81 µM
same,"inhibition at 10 min, 50 µM","OATP4C1; absence of AA, 1 µM T3, 10 min",33%
same,"inhibition at 10 min, 50 µM","OATP4C1; presence of 10, 100 and 1000 µM AA, 1 µM T3, 10 min",63 to 67%
